The test system of one test is PANC-1 cell line. In words: MTT assay, PANC-1 cells. It counts as cell-based, human. The conditions noted are these: MTT, 24 h, read-out: IC50 against PANC-1. As to the method:
Cisplatin was used as a reference drug. […] There are hydroxyl and methoxy substituents on the phenyl ring attached to the benzimidazole. It has also been derivatized using different groups on the phenyl ring close to oxadiazole.
(§1) Many analyses are performed to determine cell proliferation. MTT analysis is one of the viability determination tests. According to the working mechanism of the method, the dye containing the tetrazolium ring reacts with the dehydrogenase enzymes in the cells, only to be reduced and broken down by the metabolic cells, turning into water-insoluble formazan crystals. Color changes associated with mitochondrial activity and resulting from the addition of a solvent as a result of the reaction are measured in the microplate reader as optical density data values.[30] Cells were planted in flat-bottomed, 96-well, sterile, lidded, disposable microplates with 1 × 10^4 cells per well in 200 μL of appropriate medium and were allowed to adhere to the plate bottom by incubating for 24 h. At the end of 24 h, 100 μL of medium was withdrawn, and test substances at different concentrations, prepared in 100 μL, were added. Following the substance application, after a 24 h incubation period, 20 μL of stock MTT solution (MTT solution dissolved in 5 mg/mL PBS and filtered before application) was added to each well and protected from light, and the incubation continued for 3 h. Then, the media of the cells were completely withdrawn, and 100 μL of DMSO was added to dissolve the formazan crystals. After shaking in the dark for 15 min, the optical densities (absorbance) of the color changes at 540–570 and 650 nm reference wavelengths were read in the microplate reader. The data were calculated and created in Microsoft Office Excel. For this purpose, first, the blind well value and the control groups of colored substances were removed from the optical readings. The averages of optical densities and % viability values were made from Excel formula calculations, and the results were discussed. The viability of the control group was assumed to be 100%, and all other viability values were calculated based on this (series were run in n = 5 replicates).
Background: Formazan colour is commonly taken as a measure of viable cells.

In another test the test system is A549 cell line. In words: MTT assay, A549 cells. It counts as cell-based, human. The conditions noted are these: MTT, 24 h, read-out: IC50 against A549. The procedure: (§2) The synthesized compounds 4a–4s were screened for their in vitro anticancer activity via the standard MTT assay using three human tumor cell lines, namely, the human lung adenocarcinoma cell line (A549), the human breast cancer cell line (MCF-7), and the human pancreas cell line (PANC-1). Cisplatin was used as a reference drug. […] When the structures of the compounds are evaluated, it is seen that the compounds are derived from two different sources. There are hydroxyl and methoxy substituents on the phenyl ring attached to the benzimidazole. It has also been derivatized using different groups on the phenyl ring close to oxadiazole. When the activities in the PANC-1 cell line are evaluated, it is seen that the activity of compounds bearing the 2,4-dichloro substituent is especially high.
as §1

In the next test the test system is MCF-7 cell line. Nature of the test: MTT assay, MCF-7 cells. It counts as cell-based, human. As to conditions: read-out: IC50 against MCF-7. As to the method:
as §2, §1

A further test deals with hTERT-HPNE cell line. Nature of the test: MTT assay, normal pancreas hTERT-HPNE cells. As to conditions: normal human pancreas cells, 24 h, read-out: IC50 against hTERT-HPNE. Format: cell-based. The procedure: (§3) By comparing the compounds’ cytotoxic effects against tumor cell lines and normal cell lines, the drug safety parameter for the anticancer activity of the compounds was evaluated, thereby confirming their cytoprotective qualities. In this study, normal human lung (CCD-19Lu) and normal human pancreas (hTERT-HPNE) cell lines were used as controls. The selectivity index (SI) calculated for the compounds tested scales the IC50 values of the compounds against various tumor cell lines with the IC50 values against normal cell lines (Table 2). […] The differential selectivity indices underscore the importance of targeted therapeutic strategies and the potential for these compounds to provide selective anticancer effects with reduced toxicity to normal cells.
as §1

The subject of another test is CCD-19Lu cell line. Nature of the test: MTT assay, normal lung CCD-19Lu cells. Format: cell-based. As to conditions: normal human lung cells, 24 h, read-out: IC50 against CCD-19Lu. As to the method:
as §3, §1

IC50 data for 17 compounds are collected here from paper PMC11866186, “Novel Benzimidazole–Oxadiazole Derivatives as Anticancer Agents with VEGFR2 Inhibitory Activity: Design, Synthesis, In Vitro Anticancer Evaluation, and In Silico Studies” (ACS Omega, 2025).

Like-named read-outs stand apart in the source and are kept apart here.

For orientation: IC50 means the point on the concentration scale where inhibition reaches its midpoint. Regarding “2-((5-(2-(4-Hydroxyphenyl)-1H-benzimidazol-6-yl)-1,3,4-oxadiazol-2-yl)thio)-1-(4-methylphenyl)-ethanone [4b]”, the IC50 amounted to 33.1 µM in the test on PANC-1 cell line; 5.1 µM in the test on A549 cell line; 17.4 µM in the test with MCF-7 cell line (24 h); 86.8 µM in the test on hTERT-HPNE cell line; 40.3 µM in the test with CCD-19Lu cell line.

For “2-((5-(2-(4-Methoxyphenyl)-1H-benzimidazol-6-yl)-1,3,4-oxadiazol-2-yl)thio)-1-(4-methylphenyl)-ethanone [4k]”, the IC50 in the test on PANC-1 cell line was found to be 82 µM; in the test with A549 cell line, 74.7 µM; with MCF-7 cell line (24 h) it was 50.2 µM; with hTERT-HPNE cell line it was 29.3 µM; in the test on CCD-19Lu cell line it was 90.4 µM.

As for `O=C(CSc1nnc(-c2ccc3nc(-c4ccc(O)cc4)[nH]c3c2)o1)c1ccccc1` [4a, 2-((5-(2-(4-Hydroxyphenyl)-1H-benzimidazol-6-yl)-1,3,4-oxadiazol-2-yl)thio)-1-phenyl-ethanone], the IC50 in the test on PANC-1 cell line (Homo sapiens, PANC-1, 24 h) stood at 42.2 µM; in the test with A549 cell line (Homo sapiens, A549) it was 63.2 µM; in the test on MCF-7 cell line (Homo sapiens, MCF7, 24 h), 39.5 µM; in the test with hTERT-HPNE cell line it was 26.2 µM; in the test with CCD-19Lu cell line (CCD 19Lu), 46.1 µM.

On to `O=C(CSc1nnc(-c2ccc3nc(-c4ccc(O)cc4)[nH]c3c2)o1)c1ccc(Cl)cc1` [4c, 2-((5-(2-(4-Hydroxyphenyl)-1H-benzimidazol-6-yl)-1,3,4-oxadiazol-2-yl)thio)-1-(4-chlorophenyl)-ethanone], for which the IC50 with PANC-1 cell line (Homo sapiens, PANC-1, 24 h) came out at 17.7 µM; in the test on A549 cell line (Homo sapiens, A549), 6.3 µM; in the test on MCF-7 cell line (Homo sapiens, MCF7, 24 h), 6.1 µM; in the test on hTERT-HPNE cell line, 21.5 µM; in the test on CCD-19Lu cell line (CCD 19Lu) it was 16.3 µM.

For `O=C(CSc1nnc(-c2ccc3nc(-c4ccc(O)cc4)[nH]c3c2)o1)c1ccc(F)cc1` [4d, 2-((5-(2-(4-Hydroxyphenyl)-1H-benzimidazol-6-yl)-1,3,4-oxadiazol-2-yl)thio)-1-(4-florophenyl)-ethanone], the IC50 with PANC-1 cell line (Homo sapiens, PANC-1, 24 h) came to 33.3 µM; in the test on A549 cell line (Homo sapiens, A549), 10.3 µM; with MCF-7 cell line (Homo sapiens, MCF7, 24 h), 10.1 µM; with hTERT-HPNE cell line, 6.8 µM; with CCD-19Lu cell line (CCD 19Lu) it was 5.2 µM.

Regarding `O=C(CSc1nnc(-c2ccc3nc(-c4ccc(O)cc4)[nH]c3c2)o1)c1ccc(Br)cc1` [4e, 2-((5-(2-(4-Hydroxyphenyl)-1H-benzimidazol-6-yl)-1,3,4-oxadiazol-2-yl)thio)-1-(4-bromophenyl)-ethanone], the IC50 in the test with PANC-1 cell line (Homo sapiens, PANC-1, 24 h) amounted to 83.8 µM; with A549 cell line (Homo sapiens, A549), 96.1 µM; with MCF-7 cell line (Homo sapiens, MCF7, 24 h), 95.2 µM; in the test on hTERT-HPNE cell line, 11.3 µM; in the test with CCD-19Lu cell line (CCD 19Lu), 95.3 µM.

Regarding `N#Cc1ccc(C(=O)CSc2nnc(-c3ccc4nc(-c5ccc(O)cc5)[nH]c4c3)o2)cc1` [4f, 2-((5-(2-(4-Hydroxyphenyl)-1H-benzimidazol-6-yl)-1,3,4-oxadiazol-2-yl)thio)-1-(4-cyanophenyl)-ethanone], the IC50 with PANC-1 cell line (Homo sapiens, PANC-1, 24 h) came out at 60.4 µM; in the test with A549 cell line (Homo sapiens, A549) it was 50.7 µM; in the test with MCF-7 cell line (Homo sapiens, MCF7, 24 h) it was 45.6 µM; in the test with hTERT-HPNE cell line it was 74.9 µM; in the test with CCD-19Lu cell line (CCD 19Lu) it was 68.8 µM.

With `O=C(CSc1nnc(-c2ccc3nc(-c4ccc(O)cc4)[nH]c3c2)o1)c1ccc(F)cc1F` [4g, 2-((5-(2-(4-Hydroxyphenyl)-1H-benzimidazol-6-yl)-1,3,4-oxadiazol-2-yl)thio)-1-(2,4-diflorophenyl)-ethanone], the IC50 with PANC-1 cell line (Homo sapiens, PANC-1, 24 h) was 36.6 µM; in the test with A549 cell line (Homo sapiens, A549), 16.8 µM; in the test on MCF-7 cell line (Homo sapiens, MCF7, 24 h), 30.7 µM; in the test on hTERT-HPNE cell line it was 17.1 µM; with CCD-19Lu cell line (CCD 19Lu), 31.8 µM.

With `O=C(CSc1nnc(-c2ccc3nc(-c4ccc(O)cc4)[nH]c3c2)o1)c1ccc(Cl)cc1Cl` [4h, 2-((5-(2-(4-Hydroxyphenyl)-1H-benzimidazol-6-yl)-1,3,4-oxadiazol-2-yl)thio)-1-(2,4-dichlorophenyl)-ethanone], the IC50 was 26.7 µM in the test on PANC-1 cell line (Homo sapiens, PANC-1, 24 h); 14.6 µM in the test with A549 cell line (Homo sapiens, A549); 15.7 µM in the test with MCF-7 cell line (Homo sapiens, MCF7, 24 h); 32.9 µM in the test on hTERT-HPNE cell line; 30.3 µM in the test with CCD-19Lu cell line (CCD 19Lu).

In the case of `O=C(CSc1nnc(-c2ccc3nc(-c4ccc(O)cc4)[nH]c3c2)o1)c1ccc(O)c(O)c1` [4i, 2-((5-(2-(4-Hydroxyphenyl)-1H-benzimidazol-6-yl)-1,3,4-oxadiazol-2-yl)thio)-1-(3,4-dihydroxyphenyl)-ethanone], the IC50 in the test with PANC-1 cell line (Homo sapiens, PANC-1, 24 h) came to 23.8 µM; in the test with A549 cell line (Homo sapiens, A549) it was 21.1 µM; in the test with MCF-7 cell line (Homo sapiens, MCF7, 24 h) it was 16.5 µM; in the test with hTERT-HPNE cell line, 10.1 µM; in the test with CCD-19Lu cell line (CCD 19Lu) it was 13.9 µM.

Consider `COc1ccc(-c2nc3ccc(-c4nnc(SCC(=O)c5ccccc5)o4)cc3[nH]2)cc1` [4j, 2-((5-(2-(4-Methoxyphenyl)-1H-benzimidazol-6-yl)-1,3,4-oxadiazol-2-yl)thio)-1-phenyl-ethanone], for which the IC50 is 95.7 µM in the test with PANC-1 cell line (Homo sapiens, PANC-1, 24 h); 99.1 µM with A549 cell line (Homo sapiens, A549); 53.7 µM in the test with MCF-7 cell line (Homo sapiens, MCF7, 24 h); 93.6 µM in the test on hTERT-HPNE cell line; 95.2 µM in the test on CCD-19Lu cell line (CCD 19Lu).

Consider `COc1ccc(-c2nc3ccc(-c4nnc(SCC(=O)c5ccc(Cl)cc5)o4)cc3[nH]2)cc1` [4l, 2-((5-(2-(4-Methoxyphenyl)-1H-benzimidazol-6-yl)-1,3,4-oxadiazol-2-yl)thio)-1-(4-chlorophenyl)-ethanone], for which the IC50 in the test on PANC-1 cell line (Homo sapiens, PANC-1, 24 h) stood at 42.1 µM; in the test on A549 cell line (Homo sapiens, A549), 49.1 µM; in the test with MCF-7 cell line (Homo sapiens, MCF7, 24 h), 22.6 µM; in the test with hTERT-HPNE cell line it was 19.5 µM; in the test on CCD-19Lu cell line (CCD 19Lu), 47.8 µM.

On to `COc1ccc(-c2nc3ccc(-c4nnc(SCC(=O)c5ccc(F)cc5)o4)cc3[nH]2)cc1` [4m, 2-((5-(2-(4-Methoxyphenyl)-1H-benzimidazol-6-yl)-1,3,4-oxadiazol-2-yl)thio)-1-(4-florophenyl)-ethanone], for which the IC50 in the test with PANC-1 cell line (Homo sapiens, PANC-1, 24 h) turned out to be 41.1 µM; in the test on A549 cell line (Homo sapiens, A549), 25.3 µM; in the test with MCF-7 cell line (Homo sapiens, MCF7, 24 h), 36.9 µM; with hTERT-HPNE cell line, 28.6 µM; with CCD-19Lu cell line (CCD 19Lu) it was 20.2 µM.

`COc1ccc(-c2nc3ccc(-c4nnc(SCC(=O)c5ccc(Br)cc5)o4)cc3[nH]2)cc1` [4n, 2-((5-(2-(4-Methoxyphenyl)-1H-benzimidazol-6-yl)-1,3,4-oxadiazol-2-yl)thio)-1-(4-bromophenyl)-ethanone]: the IC50 came to 29.5 µM in the test with PANC-1 cell line (Homo sapiens, PANC-1, 24 h); 19.6 µM with A549 cell line (Homo sapiens, A549); 28.9 µM in the test with MCF-7 cell line (Homo sapiens, MCF7, 24 h); 36.2 µM in the test with hTERT-HPNE cell line; 36.8 µM with CCD-19Lu cell line (CCD 19Lu).

Turning to `COc1ccc(-c2nc3ccc(-c4nnc(SCC(=O)c5ccc(C#N)cc5)o4)cc3[nH]2)cc1` [4o, 2-((5-(2-(4-Methoxyphenyl)-1H-benzimidazol-6-yl)-1,3,4-oxadiazol-2-yl)thio)-1-(4-cyanophenyl)-ethanone], the IC50 with PANC-1 cell line (Homo sapiens, PANC-1, 24 h) stood at 70.9 µM; in the test with A549 cell line (Homo sapiens, A549), 65.2 µM; in the test with MCF-7 cell line (Homo sapiens, MCF7, 24 h) it was 49.2 µM; in the test with hTERT-HPNE cell line it was 64.2 µM; in the test on CCD-19Lu cell line (CCD 19Lu) it was 48.4 µM.

Take `COc1ccc(-c2nc3ccc(-c4nnc(SCC(=O)c5ccc(F)cc5F)o4)cc3[nH]2)cc1` [4p, 2-((5-(2-(4-Methoxyphenyl)-1H-benzimidazol-6-yl)-1,3,4-oxadiazol-2-yl)thio)-1-(2,4-diflorophenyl)-ethanone]: the half-inhibitory concentration (IC50) was 32.6 µM in the test on PANC-1 cell line (Homo sapiens, PANC-1, 24 h); 14.9 µM in the test on A549 cell line (Homo sapiens, A549); 37.1 µM in the test with MCF-7 cell line (Homo sapiens, MCF7, 24 h); 20.4 µM in the test with hTERT-HPNE cell line; 14.7 µM in the test on CCD-19Lu cell line (CCD 19Lu).

As for `N.N.[Cl][Pt][Cl]` [cisplatin, reference compound], the IC50 in the test on PANC-1 cell line turned out to be 28.8 µM; in the test with A549 cell line, 19.7 µM; with MCF-7 cell line (24 h) it was 14.7 µM; in the test on hTERT-HPNE cell line, 30.6 µM; with CCD-19Lu cell line, 22.6 µM.
